One compound from patent US5308843A, “Method of inhibiting mammalian topoisomerase II and malignant cell growth in mammals, with substituted (S)-3-methyl-7-oxo-2,3-dihydro-7H-pyrido[1,2,3-de][1,4 ]-benzoxazine(and-benzothiazine)-6-carboxylic acids” (Sterling Drug Inc., priority 1990, dated 1994) can be followed below.

The nature of data set [1]: In vivo antitumor assay, B16 melanoma (IP). More on the design: species or system mice. The note with it: mouse, in vivo; B16(IP) 0.5 ml 10% brie; drug IP; QD1,5,9; read-out: Maximum Tolerated Total Dose. From the text:
(§1) In vivo Antitumor Assay Procedure
(§2) Mice: Inbred: C3H/He; and Hybrids: B6D2F1 (C57BL/6 females×DBA/2 males), CD2F1 (Balb/c females×DBA/2 males) and B6C3F1 (C57BL/6×C3H) were bred at Wayne State University from strains obtained from the Frederick Cancer Research Facility, Frederick, Md. or from commercial suppliers.
(§3) Tumors: Murine Tumors: P388 leukemia and the following transplantable solid tumors of mice were used for in vivo testing: B16 melanoma, pancreatic ductal adenocarcinoma No. 03, colon adenocarcinoma No. 38 and mammary ductal adenocarcinoma No. 16/C. All tumors are in the Developmental Therapeutics Program frozen tumor repository, maintained by the Biological Testing Branch, Frederick, Md. Each has a detailed description, code identification number, and list of references at the National Tumor Repository. Tumors were maintained in the mouse strain of origin and were transplanted in the appropriate F1 hybrid (or the strain of origin) for therapy trials. The mice were supplied food and water ad libitum.
(§4) For P388 leukemia and B16 melanoma studies the tumor cells were implanted IP on day zero and treatment was started on day one (also IP). Titered controls were also included to facilitate the calculation of tumor cell kill.
(§5) End Points for Assessing Antitumor Activity: Quantitative end points used to assess antitumor activity included % Increased Life Span (% ILS), Tumor Cell Kill (Log10 kill), and Tumor Growth Inhibition (T/C). Long Term Survivors (45 or 60 day) were excluded from calculations of % ILS and Tumor Cell Kill.
(§6) Endpoints were calculated as follows: [formula] where Dt is the median day of death for treated and Dc is the median day of death for control groups.
(§7) The log10 cell kill was calculated from the following formula: [formula] where T-C is the tumor difference in the median day of death between the treated (T) and the control (C) groups and Td is the tumor doubling time (in days), the latter estimated from the best fit straight line from a log-linear growth plot of the control-group tumors in exponential growth. The conversion of the T-C values to log10 cell kill is possible because the Td for tumors regrowing post-treatment approximated the Td values of the tumors in untreated control mice.

The subject of a further data set is B16 melanoma. The data set can be described thus: In vivo antitumor assay, B16 melanoma (IP). More on the design: species or system mice.
Source text: as §1, §2, §3, §4, §5, §6, §7

Data set [2] can be described thus: In vivo antitumor assay, P388 leukemia (IP). Also on record: species or system mice. The note with it: mouse, in vivo, P388(IP) 10^6 cells, drug IP, read-out: Maximum Tolerated Total Dose.
Source text: as §1, §2, §3, §4, §5, §6, §7

Another data set concerns P388 leukemia. The data set can be described thus: In vivo antitumor assay, P388 leukemia (IP). More on the design: species or system mice. The note with it: for % ILS / Long Term Survivors: P388(IP) 10^6 cells, drug IP.
Source text: as §1, §2, §3, §4, §5, §6, §7

The nature of data set [3]: In vivo antitumor assay, mammary ductal adenocarcinoma No. 16/C (SC). Also on record: species or system mice. Conditions: mouse, in vivo; Mam16/C (SC); drug SC; QD1-4; read-out: Maximum Tolerated Total Dose.
Source text: as §1, §2, §3
(§8) Chemotherapy: For pancreatic ductal adenocarcinoma No. 03, colon adenocarcinoma No. 38, and mammary ductal adenocarcinoma No. 16, the following methods were used to help ensure a more uniform tumor burden per mouse (thus reducing the requirement for greater numbers of mice per group), bilateral tumor implants were used. The animals necessary to begin an experiment were pooled, implanted bilaterally s.c. on day zero with 30-60-mg tumor fragments using a 12-gauge trocar, and again pooled before randomization to the various treatment and control groups. Chemotherapy was started within three days after tumor implantation while the number of cells per mouse was relatively small (1×10^7 -1×10^8 cells).
as §5, §6
(§9) T/C Value: Tumors were measured with a caliper once or twice weekly (as needed) until either tumors exceeded 1600 mg or cure was assured. Tumor weights were estimated from two-dimensional measurements: Tumor Weight (mg)=(a×b^2)/2, where a and b are the tumor length and width (mm), respectively. Measurements were carried out simultaneously in both the treatment and control groups. When the control group tumors reached approximately 750-1500 mg in size (median of group), the median tumor weight of each group was determined (including zeros). The T/C value in percent is an indication of antitumor effectiveness. […]. […]

The test system of data set [4] is mammary ductal adenocarcinoma No. 16/C. The data set is described as above. Also on record: species or system mice.
Source text: as §1, §2, §3, §8, §5, §6, §9

For the next data set, the system named is several tumor systems. The data set can be described thus: Antitumor activity in mice against several tumor systems (overall statement). The format is in vivo.
Source text: as §1, §2
as §3, with “libitum. […]” for “libitum.”
End Points for Assessing Antitumor Activity: Quantitative end points used to assess antitumor activity included % Increased Life Span (% ILS), Tumor Cell Kill (Log10 kill), and Tumor Growth Inhibition (T/C). […]

Entries after “also recorded” stand apart in the source; their conditions may differ.

With `Cc1cc(-c2c(F)cc3c(=O)c(C(=O)O)cn4c3c2SC[C@@H]4C)cc(C)n1` [Example 5, (S)-10-(2,6-Dimethyl-4-pyridinyl)-9-fluoro-3-methyl-7-oxo-2,3-dihydro-7H-pyrido[1,2,3-de][1,4]benzothiazine-6-carboxylic acid], the MTD in data set [1] came to 1500 mg/kg; in data set [2] (QD1,5,9, vehicle 5% EtOH, 1% NaHCO3, 0.3% tween40 (pH 8.3)), 1010 mg/kg; in data set [2] (QD1-7, vehicle 3% EtOH, 3% NaHCO3, 1% tween40) it was 504 mg/kg; in data set [3], 263 mg/kg. The “% ILS” value in the data set on B16 melanoma (B16(IP), drug IP, QD1,5,9, 1500 mg/kg total) is on record as 66%; in the data set on P388 leukemia (QD1,5,9, 1014 mg/kg total), 90%; in the data set on P388 leukemia (QD1-7, 504 mg/kg total) it was 92%. For the same compound, the “Long Term Survivors” value in the data set with B16 melanoma (B16(IP), drug IP, QD1,5,9, 1500 mg/kg total, footnote 5: Day 60, tumor evident) is given as 1/6; in the data set on P388 leukemia (QD1,5,9, 1014 mg/kg total), 0/6; with P388 leukemia (QD1-7, 504 mg/kg total), 0/5; in data set [4] (Mam16/C (SC), drug SC, QD1-4, 263 mg/kg total), 0/5. Also, the “antitumor activity (in words)” value is on record as “Day 60; tumor evident; also recorded: good activity” in the data set on B16 melanoma (B16 melanoma IP); “excellent activity” in the data set on P388 leukemia (P388, 90% ILS); “clearly active” in data set [4] (Mammary Adenocarcinoma No. 16/C). Also, the “log10 tumor cell kill” value in the data set on B16 melanoma (B16 melanoma IP) is on record as 2.0 log10; in the data set with P388 leukemia (P388, equal to 90% ILS) it was 5.2-7.0 log10. The “% T/C” value in data set [4] (Mam16/C (SC), drug SC, QD1-4, at maximum tolerated total dose 263 mg/kg) turned out to be 15%. The “antineoplastic activity (in words)” value in the data set on several tumor systems was “found to possess antineoplastic activity as evidenced by its activity in reducing the size of and curing tumors, and increasing the survival time of the mice”.
